Assay results reported in the RepoRT retention time repository (doi:10.1007/s00216-021-03828-0).

Tests used:
Details in all cases: stereoisomer not certain
[1] = RP, Merck Supelco Ascentis Express C18, 100 × 2.1 mm, 2 µm, 40 °C, 0.2 mL/min, estimated dead time 1.1 min; A: water + 0.1% formic acid, pH 3; B: acetonitrile + 0.1% formic acid, pH 3; gradient (min/%B) 0/5 2/5 17/99.9 20/99.9
[2] = as above; remark: listed apart in the source
[3] = RP, Merck Supelco Ascentis Express C18, 100 × 2.1 mm, 2 µm, 40 °C, 0.4 mL/min, estimated dead time 0.55 min; A: water + 0.1% formic acid, pH 3; B: acetonitrile + 0.1% formic acid, pH 3; gradient (min/%B) 0/5 2/5 17/99.9 20/99.9
[4] = as above; remark: listed apart in the source
[5] = RP, Merck Supelco Ascentis Express C18, 100 × 2.1 mm, 2 µm, 39 °C, 0.3 mL/min, estimated dead time 0.73 min; A: water + 0.1% formic acid, pH 3; B: acetonitrile + 0.1% formic acid, pH 3; gradient (min/%B) 0/5 2/5 17/99.9 20/99.9
[6] = RP, Merck Supelco Ascentis Express C18, 100 × 2.1 mm, 2 µm, 40 °C, 0.25 mL/min, estimated dead time 0.88 min; A: water + 0.1% formic acid, pH 3; B: acetonitrile + 0.1% formic acid, pH 3; gradient (min/%B) 0/5 2/5 17/99.9 20/99.9
[7] = RP, Merck Supelco Ascentis Express C18, 100 × 2.1 mm, 2 µm, 40 °C, 0.35 mL/min, estimated dead time 0.63 min; A: water + 0.1% formic acid, pH 3; B: acetonitrile + 0.1% formic acid, pH 3; gradient (min/%B) 0/5 2/5 17/99.9 20/99.9

| SMILES | LC retention time [1] | LC retention time [2] | LC retention time [3] | LC retention time [4] | LC retention time [5] | LC retention time [6] | LC retention time [7] |
| --- | --- | --- | --- | --- | --- | --- | --- |
| CC(=O)NC(C)C(=O)O (stereo not drawn) [N-ACETYLALANINE] | 1.51 min | 1.52 min | 0.737 min | 0.74 min | 1.01 min | 1.19 min | 0.853 min |
| NC(=O)[C@@H](N)Cc1c[nH]c2ccccc12 [L-TRYPTOPHANAMIDE] | 2.97 min | 3.02 min | 1.56 min | 1.53 min | 2.02 min | 2.41 min | 1.78 min |
| O=C(O)Cc1cccc(O)c1 [3-HYDROXYPHENYLACETATE] | 7.01 min | 7 min | 5.17 min | 5.14 min | 5.94 min | 6.34 min | 5.5 min |
| O=C(O)/C=C/c1ccccc1 [TRANS-CINNAMATE] | 8.31 min | 8.28 min | 6.59 min | 6.54 min | 7.27 min | 7.67 min | 6.86 min |
| CC(=O)NC(CS)C(=O)O (stereo not drawn) [N-ACETYLCYSTEINE] | 1.91 min | 1.92 min | 0.95 min | 0.937 min | 1.26 min | 1.52 min | 1.09 min |
| CCCCCCCCCCCC=CCCCCC(=O)[O-] [PETROSELINATE] | 18.2 min | 18.1 min | 16.1 min | 16 min | 16.8 min | 17.4 min | 16.4 min |
| Cc1cc2nc[nH]c2cc1C [5,6 DIMETHYLBENZIMIDAZOLE] | 5.16 min | 5.17 min | 3.79 min | 3.76 min | 4.28 min | 4.67 min | 4 min |
| CC(CCC(=O)O)C1CCC2C3CCC4CC(O)CCC4(C)C3CCC12C (stereo not drawn) [LITHOCHOLATE] | 14.4 min | 14.4 min | 12.4 min | 12.4 min | 13.1 min | 13.7 min | 12.7 min |
| Nc1nc2ncc(CNc3ccc(C(=O)NC(CCC(=O)O)C(=O)O)cc3)nc2c(=O)[nH]1 (stereo not drawn) [FOLATE] | 4.66 min | 4.69 min | 3.58 min | 3.58 min | 3.99 min | 4.27 min | 3.76 min |
| O=C(O)CCc1ccccc1O [3-(2-HYDROXYPHENYL)PROPANOATE] | 6.72 min | 12.1 min | 5.13 min | 5.08 min | 5.72 min | 6.14 min | 5.36 min |
| CC(=O)NC(Cc1c[nH]c2ccccc12)C(=O)O (stereo not drawn) [N-ACETYLTRYPTOPHAN] | 6.55 min | 6.55 min | 5.1 min | 5.08 min | 5.64 min | 6.02 min | 5.32 min |
| OCCc1c[nH]c2ccccc12 [INDOLE-3-ETHANOL] | 7.27 min | 7.25 min | 5.61 min | 4.78 min | 6.22 min | 6.66 min | 5.95 min |
| O=C(O)CCCCCCCCCO [10-HYDROXYDECANOATE] | 8.03 min | 8.02 min | 6.58 min | 6.55 min | 7.1 min | 7.49 min | 6.8 min |
| O=C(O)Cc1ccc(O)c(O)c1 [3,4-DIHYDROXYPHENYLACETATE] | 3.97 min | 3.92 min | 1.95 min | 2.02 min | 2.67 min | 3.22 min | 2.32 min |
| Nc1nc2nc[nH]c2c(=O)[nH]1 [GUANINE] | 1.37 min | 1.36 min | 0.663 min | 0.693 min | 0.883 min | 1.09 min | 0.757 min |
| O=C(O)c1ccccc1 [BENZOATE] | 7.03 min | 7.03 min | 5.28 min | 5.23 min | 4.34 min | 6.4 min | 5.55 min |

| SMILES | LC retention time [1] | LC retention time [2] | LC retention time [3] | LC retention time [4] | LC retention time [5] | LC retention time [6] | LC retention time [7] |
| --- | --- | --- | --- | --- | --- | --- | --- |
| CC(C)CC(N)C(=O)O (stereo not drawn) [LEUCINE] | 1.55 min | 1.56 min | 0.743 min | 0.727 min | 0.98 min | 1.22 min | 0.873 min |
| Cn1c(=O)[nH]c2ncn(C)c2c1=O [PARAXANTHINE] | 3.98 min | 3.96 min | 2.16 min | 2.15 min | 2.81 min | 3.33 min | 2.47 min |
| O=CCc1c[nH]c2ccccc12 [INDOLEACETALDEHYDE] | 4.21 min | 4.97 min | 2.15 min | 2.17 min | 4.07 min | 4.45 min | 2.45 min |
| O=C(O)Cc1ccccc1O [2-HYDROXYPHENYLACETATE] | 4.85 min | 4.83 min | 2.95 min | 2.88 min | 3.67 min | 4.19 min | 3.28 min |
| O=C(O)Cc1ccc(O)cc1 [P-HYDROXYPHENYLACETATE] | 5 min | 4.99 min | 3.36 min | 3.34 min | 4.02 min | 4.43 min | 3.64 min |
| N[C@@H](Cc1cc(I)c(Oc2ccc(O)cc2)c(I)c1)C(=O)O [3,5-DIIODO-L-THYRONINE] | 7.21 min | 7.22 min | 6.02 min | 5.98 min | 6.45 min | 6.77 min | 6.19 min |
| Nc1nc2c(ncn2C2CC(O)C(CO)O2)c(=O)[nH]1 (stereo not drawn) [DEOXYGUANOSINE] | 1.44 min | 1.47 min | 0.703 min | 0.707 min | 0.943 min | 1.13 min | 0.82 min |
| CC12CCC(=O)C=C1CCC1C2C(O)CC2(C)C1CCC2(O)C(=O)CO (stereo not drawn) [CORTISOL] | 8.04 min | 8.03 min | 6.69 min | 6.65 min | 7.17 min | 7.53 min | 6.88 min |
| NC(=O)c1ccccc1O [SALICYLAMIDE] | 5.82 min | 5.82 min | 4.05 min | 4.02 min | 4.72 min | 5.19 min | 4.34 min |
| O=C(O)c1cc(=O)c2cccc(O)c2[nH]1 [XANTHURENATE] | 4.17 min | 4.15 min | 2.28 min | 2.29 min | 3.33 min | 3.61 min | 2.57 min |
| CC(C)=CCNc1ncnc2nc[nH]c12 [N6-(DELTA2-ISOPENTENYL)-ADENINE] | 5.58 min | 5.58 min | 4.24 min | 4.21 min | 4.71 min | 5.08 min | 4.44 min |
| C[Se]CCC(N)C(=O)O (stereo not drawn) [SELENOMETHIONINE] | 1.37 min | 1.37 min |  | 0.683 min | 0.887 min | 1.07 min | 0.763 min |
| NCC(=O)CCC(=O)O [5-AMINOLEVULINATE] | 1.51 min | 1.53 min | 0.737 min | 0.74 min | 1.01 min |  | 0.853 min |
| O=C([O-])Cc1ccccc1 [PHENYLACETATE] | 4.08 min |  | 3.95 min | 3.93 min | 4.5 min | 3.45 min | 4.56 min |
| COC(=O)Cc1c[nH]c2ccccc12 [INDOLE-3-METHYL ACETATE] | 10.2 min |  | 7.46 min | 8.4 min | 8.12 min | 8.62 min | 8.75 min |
